Assay results reported in patent US20070128217A1 (priority 2003, published 2007).

Columns and labels:
[1] = test system: antibodies in sera from SARS patients (sera 1a, 1b, 2, 6, 37, 62, London, SARS-yellow, SARS-green); assay type: binding, human; parameters: Binding of serum 6 to linear peptides of protein X1 of SARS-CoV Urbani / Binding of serum 37 to linear peptides of protein X1 of SARS-CoV Urbani / Binding of serum 6 to looped/cyclic peptide (PEPSCAN-ELISA) / Binding of serum 37 to looped/cyclic peptide (PEPSCAN-ELISA) / Binding of serum 37 to looped/cyclic peptides of protein X1 of SARS-CoV Urbani / Binding of serum 6 to linear peptides of protein X2 / Binding of serum 37 to linear peptides of protein X2 / Binding of serum 37 to looped/cyclic peptides of protein X2 of SARS-CoV Urbani / Binding of serum 6 to linear peptides of protein M of SARS-CoV Urbani / Binding of serum 37 to linear peptides of protein M of SARS-CoV Urbani / Binding of serum 6 to looped/cyclic peptides of protein M of SARS-CoV Urbani / Binding of serum 37 to looped/cyclic peptides of protein M of SARS-CoV Urbani / Binding of serum 6 to linear peptides of protein X3 of SARS-CoV Urbani / Binding of serum 37 to linear peptides of protein X3 of SARS-CoV Urbani / Binding of serum 37 to looped/cyclic peptides of protein X3 of SARS-CoV Urbani / Binding of serum 6 to linear peptides of protein X4 of SARS-CoV Urbani / Binding of serum 37 to linear peptides of protein X4 of SARS-CoV Urbani / Binding of serum 37 to looped/cyclic peptides of protein X4 of SARS-CoV Urbani / Binding of serum 6 to linear peptides of protein X5 of SARS-CoV Urbani / Binding of serum 37 to linear peptides of protein X5 of SARS-CoV Urbani / Binding of serum 37 to looped/cyclic peptides of protein X5 of SARS-CoV Urbani / Binding of serum 6 to linear peptides of protein N of SARS-CoV Urbani / Binding of serum 37 to linear peptides of protein N of SARS-CoV Urbani / Binding of serum 6 to linear peptide (PEPSCAN-ELISA) / Binding of serum 1a to looped/cyclic peptides of protein N of SARS-CoV Urbani / Binding of serum 1b to looped/cyclic peptides of protein N of SARS-CoV Urbani / Binding of serum 2 to looped/cyclic peptides of protein N of SARS-CoV Urbani / Binding of serum 6 to looped/cyclic peptides of protein N of SARS-CoV Urbani / Binding of serum 37 to looped/cyclic peptides of protein N of SARS-CoV Urbani / Binding of serum 62 to looped/cyclic peptides of protein N of SARS-CoV Urbani / Binding of serum London to looped/cyclic peptides of protein N of SARS-CoV Urbani / Binding of serum SARS-green to looped/cyclic peptides of protein N of SARS-CoV Urbani: unit not given here
[2] = test system: rabbit serum obtained by immunizing a rabbit with the SARS-CoV strain Frankfurt 1; assay type: binding; parameters: Binding of a rabbit serum to linear peptides / Binding of a rabbit serum to looped peptides / Rabbit serum linear peptides / Rabbit serum looped peptides / Binding of a rabbit serum to linear peptides of protein N of SARS-CoV Urbani (Rabbit serum linear peptides) / Binding of a rabbit serum to looped/cyclic peptides of protein N of SARS-CoV Urbani (Rabbit serum looped peptides): unit not given here
[3] = test system: recombinant human anti-SARS-CoV antibody 03-018; assay type: binding; parameters: Binding of antibody 03-018 to linear peptides of the N protein of SARS-CoV Urbani / Binding of antibody 03-018 to looped/cyclic peptides of the N protein of SARS-CoV Urbani: unit not given here
[4] = test system: control sera (pooled serum of ten healthy LUMC hospital workers; commercial negative donor pooled serum from the Dutch bloodbank); assay type: binding, human; parameters: Binding of Control serum LUMC to linear peptides / Binding of Control serum Blood-bank to linear peptides / Binding of Control serum LUMC to looped peptides / Binding of Control Serum Blood-Bank to Looped peptides / Binding of Control serum LUMC to linear peptides of the protein M of SARS-CoV Urbani / Binding of Control serum Blood-bank to linear peptides of the protein M of SARS-CoV Urbani / Binding of Control serum LUMC to looped peptides of the protein M of SARS-CoV Urbani / Binding of Control Serum Blood-Bank to Looped peptides of the protein M of SARS-CoV Urbani: unit not given here

Sequence | Binding of serum 1a to linear peptides of protein N of SARS-CoV Urbani [1] | Binding of serum 1a to looped/cyclic peptides of protein N of SARS-CoV Urbani [1] | Binding of serum 1b to linear peptides of protein N of SARS-CoV Urbani [1] | Binding of serum 1b to looped/cyclic peptides of protein N of SARS-CoV Urbani [1] | Binding of serum 2 to linear peptides of protein N of SARS-CoV Urbani [1] | Binding of serum 2 to looped/cyclic peptides of protein N of SARS-CoV Urbani [1] | Binding of serum 6 to linear peptides of protein N of SARS-CoV Urbani [1] | Binding of serum 6 to looped/cyclic peptides of protein N of SARS-CoV Urbani [1] | Binding of serum 37 to linear peptides of protein N of SARS-CoV Urbani [1] | Binding of serum 37 to looped/cyclic peptides of protein N of SARS-CoV Urbani [1] | Binding of serum 62 to looped/cyclic peptides of protein N of SARS-CoV Urbani [1] | Binding of serum London to looped/cyclic peptides of protein N of SARS-CoV Urbani [1] | Binding of serum SARS-green to looped/cyclic peptides of protein N of SARS-CoV Urbani [1] | Binding of serum SARS-yellow to looped/cyclic peptides of protein N of SARS-CoV Urbani [1] | Binding of antibody 03-018 to linear peptides of the N protein of SARS-CoV Urbani [3] | Binding of antibody 03-018 to looped/cyclic peptides of the N protein of SARS-CoV Urbani [3] | Binding of Control Serum Blood-Bank to Looped peptides [4] | Binding of Control serum Blood-bank to linear peptides [4] | Binding of Control serum LUMC to linear peptides [4] | Binding of Control serum LUMC to looped peptides [4] | also measured
GPDDQIGYYRRATRR | 0.2 | 0.4 | 0.1 | 0.3 | 0.2 | 0.5 | 0.2 | 0.4 | 0.6 | 0.8 | 0.8 | 0.5 | 0.6 | 0.9 | 0.1 | 0.3 | 0.9 | 0.8 | 0.8 | 0.9 | Binding of serum 62 to linear peptides of protein N of SARS-CoV Urbani [1]: 0.6; Binding of serum London to linear peptides of protein N of SARS-CoV Urbani [1]: 0.4; Binding of serum SARS-green to linear peptides of protein N of SARS-CoV Urbani [1]: 0.3; Binding of serum SARS-yellow to linear peptides of protein N of SARS-CoV Urbani [1]: 0.6; Recognition of the peptide by the rabbit serum [2]: recognized
GPEASLPYGANKEGI | 0.3 | 0.3 | 0.2 | 0.2 | 0.3 | 0.4 | 0.3 | 0.2 | 0.8 | 0.6 | 0.5 | 0.4 | 0.5 | 0.3 | 0.1 | 0.2 | 0.6 | 0.9 | 0.9 | 0.8 | Binding of serum 62 to linear peptides of protein N of SARS-CoV Urbani [1]: 0.9; Binding of serum London to linear peptides of protein N of SARS-CoV Urbani [1]: 0.6; Binding of serum SARS-green to linear peptides of protein N of SARS-CoV Urbani [1]: 0.7; Binding of serum SARS-yellow to linear peptides of protein N of SARS-CoV Urbani [1]: 0.6; Binding of a rabbit serum to linear peptides of protein N of SARS-CoV Urbani (Rabbit serum linear peptides) [2]: 0.1; Binding of a rabbit serum to looped/cyclic peptides of protein N of SARS-CoV Urbani (Rabbit serum looped peptides) [2]: 0.3
GRNGARPKQRRPQGL | 0.2 | 0.2 | 0.1 | 0.1 | 0.2 | 0.2 | 0.2 | 0.2 | 0.7 | 0.4 | 0.3 | 0.3 | 0.2 | 0.3 | 0.1 | 0.2 | 0.5 | 0.7 | 0.6 | 0.5 | Binding of serum 62 to linear peptides of protein N of SARS-CoV Urbani [1]: 0.6; Binding of serum London to linear peptides of protein N of SARS-CoV Urbani [1]: 0.4; Binding of serum SARS-green to linear peptides of protein N of SARS-CoV Urbani [1]: 0.4; Binding of serum SARS-yellow to linear peptides of protein N of SARS-CoV Urbani [1]: 0.4; Binding of a rabbit serum to linear peptides of protein N of SARS-CoV Urbani (Rabbit serum linear peptides) [2]: 0.2; Binding of a rabbit serum to looped/cyclic peptides of protein N of SARS-CoV Urbani (Rabbit serum looped peptides) [2]: 0.7
GRRGPEQTQGNFGDQ |  | 0.4 |  | 0.3 |  | 0.4 |  | 0.2 |  | 0.5 | 0.6 | 0.5 | 0.4 | 0.5 | 0.1 | 0.2 | 0.6 | 0.6 | 0.6 | 0.6 | Recognition of the peptide by sera of SARS-CoV infected individuals, and form (linear, looped/cyclic) in which it is recognized [1]: recognized in linear form; Binding of a rabbit serum to linear peptides of protein N of SARS-CoV Urbani (Rabbit serum linear peptides) [2]: 0.1; Binding of a rabbit serum to looped/cyclic peptides of protein N of SARS-CoV Urbani (Rabbit serum looped peptides) [2]: 0.2
